These results are taken from US20230127839A1, “COMPOUNDS AND COMPOSITIONS FOR TREATING CONDITIONS ASSOCIATED WITH STING ACTIVITY” (IFM Due, Inc., priority 2019, published 2023).

Where only a bound is given, the exact number is not on record here.

The assay deals with T1, hSTING (Homo sapiens, UniProt Q86WV6, G230A/H232R/R293Q/R71H).
T1 construct: host or cells: THP1-Dual KO-IFNAR2 cells
T1 sequence (Q86WV6 whole entry R71H/G230A/H232R/R293Q): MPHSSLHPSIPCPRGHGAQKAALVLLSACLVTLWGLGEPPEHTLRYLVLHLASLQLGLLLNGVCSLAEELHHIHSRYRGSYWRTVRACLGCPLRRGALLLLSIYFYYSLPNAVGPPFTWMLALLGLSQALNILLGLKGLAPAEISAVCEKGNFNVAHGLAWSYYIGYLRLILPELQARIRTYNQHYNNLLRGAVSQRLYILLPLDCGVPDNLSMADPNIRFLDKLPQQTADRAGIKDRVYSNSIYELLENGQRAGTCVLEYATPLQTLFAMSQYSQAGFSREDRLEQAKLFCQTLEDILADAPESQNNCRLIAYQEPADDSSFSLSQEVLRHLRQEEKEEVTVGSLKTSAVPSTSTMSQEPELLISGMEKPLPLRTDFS
The experiment in a line: STING reporter assay (luciferase) in THP1-Dual KO-IFNAR2 cells stimulated with 2'3'cGAMP. In kind it is cell-based. Particulars: 2'3'cGAMP 15 μM, 24 h, luciferase reporter activity. The method, then:
STING pathway activation by the compounds described herein is measured using THP1-Dual™ cells (KO-IFNAR2).
THP1-Dual™ KO-IFNAR2 Cells (obtained from invivogen) are maintained in RPMI, 10% FCS, 5 ml P/S, 2 mM L-glut, 10 mM Hepes, and 1 mM sodium pyruvate.
Compounds are spotted in empty 384 well tissue culture plates (Greiner 781182) by Echo for a final concentration of 0.0017-100 μM. Cells are plated into the TC plates at 40 μL per well, 2×10E6 cells/mL. For activation with STING ligand, 2′3′cGAMP (MW 718.38, obtained from Invivogen), is prepared in Optimem media.
The following solutions are prepared for each 1×384 plate: • Solution A: 2 mL Optimem with one of the following stimuli: • 60 uL of 10 mM 2′3′cGAMP->150 μM stock • Solution B: 2 mL Optimem with 60 μL Lipofectamine 2000->Incubate 5 min at RT
2 mL of solution A and 2 ml Solution B is mixed and incubated for 20 min at room temperature (RT). 20 uL of transfection solution (A+B) is added on top of the plated cells, with a final 2′3′cGAMP concentration of 15 μM. The plates are then centrifuged immediately at 340 g for 1 minute, after which they are incubated at 37° C., 5% CO2, >98% humidity for 24 h. Luciferase reporter activity is then measured. EC50 values are calculated by using standard methods known in the art.
Luciferase reporter assay: 10 μL of supernatant from the assay is transferred to white 384-plate with flat bottom and squared wells. One pouch of QUANTI-Luc™ Plus us dissolved in 25 mL of water. 100 μL of QLC Stabilizer per 25 mL of QUANTI-Luc™ Plus solution is added. 50 μL of QUANTI-Luc™ Plus/QLC solution per well is then added. Luminescence is measured on a Platereader (e.g., Spectramax I3X (Molecular Devices GF3637001)).
Luciferase reporter activity is then measured. EC50 values are calculated by using standard methods known in the art.
`CC1(C)CN(c2ncc(NC(=O)Nc3c[nH]c4cc(F)c(F)cc34)cc2Cl)CCO1` [Compound 153, 1-(5-chloro-6-(2,2-dimethylmorpholino)pyridin-3-yl)-3-(5,6-difluoro-1H-indol-3-yl)urea] showed an EC50 of 40 to 200 nM.

For the compound `O=C(Nc1cc(Cl)c(C2CCC(F)(F)CC2)cn1)Nc1c[nH]c2cc(F)c(F)cc12` [Compound 154, 1-(4-chloro-5-(4,4-difluorocyclohexyl)pyridin-2-yl)-3-(5,6-difluoro-1H-indol-3-yl)urea], the EC50 was in the range of 40 to 200 nM.

As for `O=C(Nc1ccc(N2CC3(C2)CC(F)(F)C3)nc1)Nc1c[nH]c2ccc(Cl)cc12` [Compound 155, 1-(5-chloro-1H-indol-3-yl)-3-(6-(6,6-difluoro-2-azaspiro[3.3]heptan-2-yl)pyridin-3-yl)urea], the EC50 fell in the range of 40 to 200 nM.

Regarding `Cc1cc(NC(=O)Nc2c[nH]c3ccc(Cl)cc23)cnc1C1CCC(F)(F)CC1` [Compound 156, 1-(5-chloro-1H-indol-3-yl)-3-(6-(4,4-difluorocyclohexyl)-5-methylpyridin-3-yl)urea], the EC50 lay within 40 to 200 nM.

Compound `O=C(Nc1cnc(C2CCC(F)(F)CC2)c(Cl)c1)Nc1c[nH]c2ccc(Cl)cc12` [Compound 157, 1-(5-chloro-1H-indol-3-yl)-3-(5-chloro-6-(4,4-difluorocyclohexyl)pyridin-3-yl)urea] displayed an EC50 of 40 to 200 nM.

`C[C@@H]1CN(c2ncc(NC(=O)Nc3c[nH]c4cc(F)c(F)cc34)cc2Cl)CCO1` [Compound 158, (R)-1-(5-chloro-6-(2-methylmorpholino)pyridin-3-yl)-3-(5,6-difluoro-1H-indol-3-yl)urea] gave an EC50 of 200 to 1000 nM.

In turn, `O=C(Nc1cnc(C2CCC(F)(F)CC2)c(Cl)c1)Nc1c[nH]c2ccc(C(F)F)cc12` [Compound 159, 1-(5-chloro-6-(4,4-difluorocyclohexyl)pyridin-3-yl)-3-(5-(difluoromethyl)-1H-indol-3-yl)urea] displayed an EC50 of 40 to 200 nM.

Turning to `Cc1cc(NC(=O)Nc2c[nH]c3cc(F)c(F)cc23)cnc1N1CC2(COC2)C1` [Compound 160, 1-(5,6-difluoro-1H-indol-3-yl)-3-(5-methyl-6-(2-oxa-6-azaspiro[3.3]heptan-6-yl)pyridin-3-yl)urea], the EC50 is over 30000 nM.

In the case of `Cc1cc(NC(=O)Nc2c[nH]c3cc(F)c(F)cc23)cnc1N1CC2(CC(O)C2)C1` [Compound 161, 1-(5,6-difluoro-1H-indol-3-yl)-3-(6-(6-hydroxy-2-azaspiro[3.3]heptan-2-yl)-5-methylpyridin-3-yl)urea], the concentration for a half-maximal effect (EC50) lay within 5000 to 100000 nM.

On to `Cc1cc(NC(=O)Nc2c[nH]c3cc(F)c(F)cc23)cnc1N1CC(F)(F)C1` [Compound 162, 1-(5,6-difluoro-1H-indol-3-yl)-3-(6-(3,3-difluoroazetidin-1-yl)-5-methylpyridin-3-yl)urea], for which the EC50 was in the range of 200 to 1000 nM.

In turn, `N#Cc1cc(NC(=O)Nc2c[nH]c3cc(F)c(F)cc23)cnc1N1CCC(F)(F)CC1` [Compound 163, 1-(5-cyano-6-(4,4-difluoropiperidin-1-yl)pyridin-3-yl)-3-(5,6-difluoro-1H-indol-3-yl)urea] registered an EC50 of 40 to 200 nM.

The compound `Cc1cc(NC(=O)Nc2c[nH]c3ccc(CCO)cc23)cnc1N1CCC(F)(F)CC1` [Compound 164, 1-(6-(4,4-difluoropiperidin-1-yl)-5-methylpyridin-3-yl)-3-(5-(2-hydroxyethyl)-1H-indol-3-yl)urea] registered an EC50 of 1000 to 5000 nM.

Take `O=C(Nc1cnc(N2CCOCC2)c(Cl)c1)Nc1c[nH]c2cc(F)c(F)cc12` [Compound 165, 1-(5-chloro-6-morpholinopyridin-3-yl)-3-(5,6-difluoro-1H-indol-3-yl)urea]: the EC50 was 200 to 1000 nM.

The compound `Cc1cc(NC(=O)Nc2c[nH]c3cc(F)c(F)cc23)cnc1C1CCN(CC(F)(F)F)CC1` [Compound 166, 1-(5,6-difluoro-1H-indol-3-yl)-3-(5-methyl-6-(1-(2,2,2-trifluoroethyl)piperidin-4-yl)pyridin-3-yl)urea] gave an EC50 of 200 to 1000 nM.

Compound `Cc1cc(NC(=O)Nc2c[nH]c3cc(F)c(F)cc23)cnc1N1CC2(C1)CC(F)(F)C2` [Compound 167, 1-(5,6-difluoro-1H-indol-3-yl)-3-(6-(6,6-difluoro-2-azaspiro[3.3]heptan-2-yl)-5-methylpyridin-3-yl)urea] displayed an EC50 of 200 to 1000 nM.

As to `COc1cc(NC(=O)Nc2c[nH]c3cc(F)c(F)cc23)cnc1N1CC(F)(F)C1` [Compound 168, 1-(5,6-difluoro-1H-indol-3-yl)-3-(6-(3,3-difluoroazetidin-1-yl)-5-methoxypyridin-3-yl)urea], the EC50 lay within 200 to 1000 nM.

Take `Cc1cc(NC(=O)Nc2c[nH]c3cc(F)c(F)cc23)cnc1C1CCOCC1` [Compound 169, 1-(5,6-difluoro-1H-indol-3-yl)-3-(5-methyl-6-(tetrahydro-2H-pyran-4-yl)pyridin-3-yl)urea]: the EC50 lay within 200 to 1000 nM.

`O=C(Nc1cnc(N2CCC(F)(F)CC2)c(Cl)c1)Nc1c[nH]c2cc(F)c(Cl)cc12` [Compound 170, 1-(5-chloro-6-(4.4-difluoropiperidin-1-yl)pyridin-3-yl)-3-(5-chloro-6-fluoro-1H-indol-3-yl)urea] showed an EC50 of 40 to 200 nM.

`CS(=O)(=O)c1ccc2[nH]cc(NC(=O)Nc3cnc(N4CCC(F)(F)CC4)c(Cl)c3)c2c1` [Compound 171, 1-(5-chloro-6-(4,4-difluoropiperidin-1-yl)pyridin-3-yl)-3-(5-(methylsulfonyl)-1H-indol-3-yl)urea] returned an EC50 of 5000 to 100000 nM.

For the compound `C#CCC1CCN(c2ccc(NC(=O)Nc3c[nH]c4ccccc34)cn2)CC1` [Compound 172, 1-(1H-indol-3-yl)-3-(6-(4-(prop-2-yn-1-yl)piperidin-1-yl)pyridin-3-yl)urea], the EC50 lay within 200 to 1000 nM.

On to `O=C(Nc1cnc(C2CC(F)(F)C2)c(Cl)c1)Nc1c[nH]c2cc(F)c(F)cc12` [Compound 173, 1-(5-chloro-6-(3,3-difluorocyclobutyl)pyridin-3-yl)-3-(5,6-difluoro-1H-indol-3-yl)urea], for which the EC50 was 200 to 1000 nM.

On to `O=C(Nc1cnc(N2CCC(F)(F)CC2)c(Cl)n1)Nc1c[nH]c2ccc(Cl)cc12` [Compound 174, 1-(5-chloro-1H-indol-3-yl)-3-(6-chloro-5-(4,4-difluoropiperidin-1-yl)pyrazin-2-yl)urea], for which the EC50 was in the range of 40 to 200 nM.

As for `Cc1nc(NC(=O)Nc2c[nH]c3cc(F)c(F)cc23)cnc1N1CCC(F)(F)CC1` [Compound 175, 1-(5,6-difluoro-1H-indol-3-yl)-3-(5-(4,4-difluoropiperidin-1-yl)-6-methylpyrazin-2-yl)urea], the EC50 lay in the range of 200 to 1000 nM.

Compound `O=C(Nc1cnc(N2CCC3(CCCCO3)CC2)c(Cl)c1)Nc1c[nH]c2cc(F)c(F)cc12` [Compound 176, 1-(5-chloro-6-(1-oxa-9-azaspiro[5.5]undecan-9-yl)pyridin-3-yl)-3-(5,6-difluoro-1H-indol-3-yl)urea] returned an EC50 of 200 to 1000 nM.

With `COCCC1CCN(c2ncc(NC(=O)Nc3c[nH]c4cc(F)c(F)cc34)cc2Cl)CC1` [Compound 177, 1-(5-chloro-6-(4-(2-methoxyethyl)piperidin-1-yl)pyridin-3-yl)-3-(5,6-difluoro-1H-indol-3-yl)urea], the EC50 is 40 to 200 nM.

Compound `O=C(Nc1cnc(N2CCC(F)(F)CC2)nc1)Nc1c[nH]c2ccccc12` [Compound 178, 1-(2-(4,4-difluoropiperidin-1-yl)pyrimidin-5-yl)-3-(1H-indol-3-yl)urea] yielded an EC50 of 1000 to 5000 nM.

`O=C(Nc1cnc(N2CCC(F)(F)CC2)nc1)Nc1c[nH]c2cc(F)c(F)cc12` [Compound 179, 1-(5,6-difluoro-1H-indol-3-yl)-3-(2-(4,4-difluoropiperidin-1-yl)pyrimidin-5-yl)urea]: the EC50 was 200 to 1000 nM.

Take `O=C(Nc1cnc(N2CCC(F)(F)CC2)nc1)Nc1c[nH]c2ccc(Cl)cc12` [Compound 180, 1-(5-chloro-1H-indol-3-yl)-3-(2-(4,4-difluoropiperidin-1-yl)pyrimidin-5-yl)urea]: the EC50 lay in the range of 40 to 200 nM.

`N#Cc1ccc2[nH]cc(NC(=O)Nc3cnc(N4CCC(F)(F)CC4)c(Cl)c3)c2c1` [Compound 181, 1-(5-chloro-6-(4,4-difluoropiperidin-1-yl)pyridin-3-yl)-3-(5-cyano-1H-indol-3-yl)urea] displayed an EC50 of 40 to 200 nM.

In turn, `CSc1ccc2[nH]cc(NC(=O)Nc3cnc(N4CCC(F)(F)CC4)c(Cl)c3)c2c1` [Compound 183, 1-(5-chloro-6-(4,4-difluoropiperidin-1-yl)pyridin-3-yl)-3-(5-(methylthio)-1H-indol-3-yl)urea] registered an EC50 of 40 to 200 nM.

`Cc1cc(NC(=O)Nc2c[nH]c3ccc(Br)cc23)cnc1N1CCC(F)(F)CC1` [Compound 184, 1-(5-bromo-1H-indol-3-yl)-3-(6-(4,4-difluoropiperidin-1-yl)-5-methylpyridin-3-yl)urea] returned a half-maximal effective concentration (EC50) of 40 to 200 nM.
